Data published in patent US20240041042A1, “1-(PYRIDYL)-5-AZINYLPYRAZOLE DERIVATIVES, AND THEIR USE FOR CONTROL OF UNDESIRED PLANT GROWTH” (Bayer Aktiengesellschaft, priority 2020, published 2024).

Experiments:
Assay type in all cases: in vivo
[1] = system: Alopecurus myosuroides (ALOMY); assay: Pre-emergence herbicidal action against ALOMY; conditions: scored visually after about 3 weeks, 100% = plants have died
In short: (§1)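 Pre-emergence soil-surface spray of compound, formulated as wettable powder or emulsion concentrate, in aqueous suspension or emulsion with 0.5% additive (600 l/ha; rate 320 g/ha or less). Activity rated visually after roughly 3 weeks in the greenhouse as a percentage of untreated controls, 0% meaning no difference.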

[2] = system: Amaranthus retroflexus (AMARE); assay: Pre-emergence herbicidal action against AMARE; conditions: visual scoring after about 3 weeks vs untreated controls
In short: as §1

Avena fatua (AVEFA) [3] = assay: Pre-emergence herbicidal action against AVEFA; conditions: 320 g/ha, visual scoring after about 3 weeks vs untreated controls
In short: as §1

[4] = system: Digitaria sanguinalis (DIGSA); assay: Pre-emergence herbicidal action against DIGSA
Description: Seeds of monocotyledonous and dicotyledonous weed plants and crop plants are placed in plastic or organic planting pots and covered with soil. The compounds of the invention, formulated in the form of wettable powders (WP) or as emulsion concentrates (EC), are then applied to the surface of the covering soil as aqueous suspension or emulsion with addition of 0.5% additive at a water application rate equivalent to 600 l/ha. After the treatment, the pots are placed in a greenhouse and kept under good growth conditions for the trial plants. After about 3 weeks, the effect of the preparations is scored visually in comparison with untreated controls as percentages. For example, 100% activity=the plants have died, 0% activity=like control plants.
Tables A1 to A13 below show the effects of selected compounds of the general formula (I) on various harmful plants and at an application rate corresponding to 320 g/ha or lower, which were obtained by the experimental procedure mentioned above. The appendices “a”, “b” and “c” give differentiation by dosage used with otherwise the same harmful plants tested.

[5] = system: Echinochloa crus-galli (ECHCG); assay: Pre-emergence herbicidal action against ECHCG
In short: as §1

Lolium rigidum (LOLRI) [6] = assay: Pre-emergence herbicidal action against LOLRI
In short: as §1

[7] = system: Matricaria inodora (MATIN); assay: Pre-emergence herbicidal action against MATIN
In short: as §1

[8] = system: Polygonum convolvulus (POLCO); assay: Pre-emergence herbicidal action against POLCO
In short: as §1

Setaria viridis (SETVI) [9] = assay: Pre-emergence herbicidal action against SETVI
In short: as §1

[10] = system: Verconica persica (VERPE); assay: Pre-emergence herbicidal action against VERPE; conditions: dosage 320 g/ha
In short: as §1

Viola tricolor (VIOTR) [11] = assay: Pre-emergence herbicidal action against VIOTR
In short: as §1

[12] = system: Alopecurus myosuroides (ALOMY); assay: Post-emergence herbicidal action against ALOMY; conditions: visual rating about 3 weeks after treatment vs untreated controls (100% = plants have died, 0% = like control plants)
In short: (§2)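 Doses of 320 g/ha or lower, suffixes a, b and c marking different dosages, were applied post-emergence at the one-leaf stage in 600 l/ha water with 0.5% additive. Damage was assessed visually after about 3 weeks in the greenhouse.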

[13] = system: Amaranthus retroflexus (AMARE); assay: Post-emergence herbicidal action against AMARE
In short: as §2

Avena fatua (AVEFA) [14] = assay: Post-emergence herbicidal action against AVEFA; conditions: visual rating about 3 weeks after treatment
In short: as §2

[15] = system: Digitaria sanguinalis (DIGSA); assay: Post-emergence herbicidal action against DIGSA; conditions: visual rating about 3 weeks after treatment
In short: as §2

[16] = system: Pharbitis purpurea (PHBPU); assay: Post-emergence herbicidal action against PHBPU
In short: as §2

[17] = system: Verconica persica (VERPE); assay: Post-emergence herbicidal action against VERPE
In short: as §2

Oryza sativa (ORYSA) = conditions: crop plant compatibility, 20 g/ha, effect vs untreated controls
In short: (§3)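 Foliar application at the one-leaf stage: WP/EC formulation, 0.5% additive, 600 l/ha water. Greenhouse-grown in sandy loam. Endpoint is visual % injury relative to untreated controls at about 3 weeks.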

Zea mays (ZEAMX) = conditions: for Post-emergence action against ZEAMX in % (crop plant compatibility): 20 g/ha, effect in comparison to untreated controls; for Post-emergence action against ZEAMX in %: crop plant compatibility, 80 g/ha, effect vs untreated controls
In short: as §3

[18] = system: Abutilon theophrasti (ABUTH); assay: Post-emergence herbicidal action against ABUTH; conditions: visual rating about 3 weeks after treatment vs untreated controls (100% = plants have died, 0% = like control plants)
In short: as §2

[19] = system: Echinochloa crus-galli (ECHCG); assay: Post-emergence herbicidal action against ECHCG
In short: as §2

Lolium rigidum (LOLRI) [20] = assay: Post-emergence herbicidal action against LOLRI
In short: as §2

[21] = system: Matricaria inodora (MATIN); assay: Post-emergence herbicidal action against MATIN; conditions: dosage 320 g/ha
In short: as §2

Setaria viridis (SETVI) [22] = assay: Post-emergence herbicidal action against SETVI
In short: as §2

Viola tricolor (VIOTR) [23] = assay: Post-emergence herbicidal action against VIOTR
In short: as §2

[24] = system: Pharbitis purpurea (PHBPU); assay: Pre-emergence herbicidal action against PHBPU
In short: as §1

[25] = 80 g/ha, visual scoring after about 3 weeks vs untreated controls
[26] = 80 g/ha, visual rating about 3 weeks after treatment vs untreated controls (100% = plants have died, 0% = like control plants)

SMILES | Pre-emergence action against ALOMY ([1]; 80 g/ha) [%] | Pre-emergence action against ALOMY ([1]; 320 g/ha) [%] | Pre-emergence action against AMARE in % ([2]; 80 g/ha) [%] | Pre-emergence action against AMARE in % ([2]; 320 g/ha) [%] | Pre-emergence action against AVEFA in % (Avena fatua (AVEFA) [3]) [%] | Pre-emergence action against DIGSA in % [4, 25] [%] | Pre-emergence action against DIGSA in % ([4]; dosage 320 g/ha) [%] | Pre-emergence action against ECHCG in % ([5]; dosage 320 g/ha) [%] | Pre-emergence action against LOLRI in % (Lolium rigidum (LOLRI) [6]; dosage 320 g/ha) [%] | Pre-emergence action against MATIN in % ([7]; dosage 80 g/ha) [%] | Pre-emergence action against MATIN in % ([7]; dosage 320 g/ha) [%] | Pre-emergence action against POLCO in % ([8]; dosage 320 g/ha) [%] | Pre-emergence action against SETVI in % (Setaria viridis (SETVI) [9]; dosage 320 g/ha) [%] | Pre-emergence action against VERPE in % [10] [%] | Pre-emergence action against VIOTR in % (Viola tricolor (VIOTR) [11]; 320 g/ha, Viola tricolor) [%] | Pre-emergence action against VIOTR in % (Viola tricolor (VIOTR) [11]; dosage 80 g/ha) [%] | Post-emergence action against ALOMY in % ([12]; 80 g/ha) [%] | Post-emergence action against AVEFA in % (Avena fatua (AVEFA) [14]; 80 g/ha) [%] | Post-emergence action against PHBPU in % ([16]; dosage 80 g/ha) [%] | Post-emergence action against VERPE in % ([17]; dosage 80 g/ha) [%] | further results
O=C(COc1nn(-c2ncccc2F)c(-c2ccc(F)nc2)c1Br)OCc1ccccn1 [Example I-46] | 90 | 100 | 100 | 100 | 90 | 100 | 100 | 90 | 100 | 90 | 90 | 80 | 100 | 100 | 100 | 90 | 90 | 80 | 80 | 80 | Pre-emergence action against LOLRI in % (Lolium rigidum (LOLRI) [6]; dosage 80 g/ha): 90%; Pre-emergence action against SETVI in % (Setaria viridis (SETVI) [9]; dosage 80 g/ha): 90%; Post-emergence action against AMARE in % [13, 26]: 90%; Post-emergence action against DIGSA in % ([15]; 80 g/ha): 90%; Post-emergence action against ORYSA in % (Oryza sativa (ORYSA)): 10%; Post-emergence action against ZEAMX in % (crop plant compatibility) (Zea mays (ZEAMX)): 0%; Post-emergence action against ZEAMX in % (Zea mays (ZEAMX)): 10%
CC(C)=NOC(=O)COc1nn(-c2ncccc2F)c(-c2ccc(F)nc2)c1Br [Example I-45] | 90 | – | 90 | – | – | 100 | – | – | – | 80 | – | – | – | – | – | 90 | 90 | 80 | – | 80 | Pre-emergence action against ECHCG in % ([5]; dosage 80 g/ha): 90%; Pre-emergence action against POLCO in % ([8]; dosage 80 g/ha): 90%; Post-emergence action against ABUTH in % ([18]; 80 g/ha): 80%; Post-emergence action against AMARE in % [13, 26]: 80%; Post-emergence action against DIGSA in % ([15]; 80 g/ha): 90%; Post-emergence action against ORYSA in % (Oryza sativa (ORYSA)): 10%; Post-emergence action against ZEAMX in % (crop plant compatibility) (Zea mays (ZEAMX)): 0%; Post-emergence action against ZEAMX in % (Zea mays (ZEAMX)): 10%
CCOC(=O)COc1nn(-c2ccccn2)c(-c2ccnc(F)c2)c1Br [Example I-01, Ethyl {[4-bromo-5-(2-fluoropyridin-4-yl)-1-(pyridin-2-yl)-1H-pyrazol-3-yl]oxy}acetate] | – | 100 | 80 | 90 | 80 | 80 | 100 | 90 | 100 | – | 100 | 90 | 100 | 90 | 90 | – | 100 | 90 | 80 | 80 | Post-emergence action against ABUTH in % ([18]; 320 g/ha): 80%; Post-emergence action against ALOMY in % ([12]; 320 g/ha): 100%; Post-emergence action against AMARE in % ([13]; 320 g/ha, visual rating about 3 weeks after treatment): 80%; Post-emergence action against AVEFA in % (Avena fatua (AVEFA) [14]; 320 g/ha): 100%; Post-emergence action against ECHCG in % ([19]; dosage 80 g/ha): 80%; Post-emergence action against ECHCG in % ([19]; dosage 320 g/ha): 90%; Post-emergence action against LOLRI in % (Lolium rigidum (LOLRI) [20]; dosage 80 g/ha): 80%; Post-emergence action against LOLRI in % (Lolium rigidum (LOLRI) [20]; dosage 320 g/ha): 90%; Post-emergence action against MATIN in % [21]: 90%; Post-emergence action against PHBPU in % ([16]; dosage 320 g/ha): 80%; Post-emergence action against SETVI in % (Setaria viridis (SETVI) [22]; dosage 320 g/ha): 80%; Post-emergence action against VERPE in % ([17]; 320 g/ha, VERPE): 90%; Post-emergence action against VIOTR in % (Viola tricolor (VIOTR) [23]; 80 g/ha): 90%; Post-emergence action against VIOTR in % (Viola tricolor (VIOTR) [23]; 320 g/ha): 100%
CCOC(=O)COc1nn(-c2nc(F)ccc2F)c(-c2cncc(F)c2)c1Cl [Example I-163] | – | 90 | – | 90 | – | 90 | 100 | 90 | 90 | 90 | 90 | 80 | 100 | 80 | 100 | 90 | – | – | 80 | – | Pre-emergence action against ECHCG in % ([5]; dosage 80 g/ha): 80%; Pre-emergence action against PHBPU in % ([24]; dosage 80 g/ha): 90%; Pre-emergence action against PHBPU in % ([24]; dosage 320 g/ha): 90%; Pre-emergence action against POLCO in % ([8]; dosage 80 g/ha): 80%; Pre-emergence action against SETVI in % (Setaria viridis (SETVI) [9]; dosage 80 g/ha): 80%; Post-emergence action against ALOMY in % ([12]; 320 g/ha): 80%; Post-emergence action against DIGSA in % ([15]; 320 g/ha): 80%; Post-emergence action against ECHCG in % ([19]; dosage 80 g/ha): 80%; Post-emergence action against ECHCG in % ([19]; dosage 320 g/ha): 80%; Post-emergence action against LOLRI in % (Lolium rigidum (LOLRI) [20]; dosage 320 g/ha): 80%; Post-emergence action against PHBPU in % ([16]; dosage 320 g/ha): 90%; Post-emergence action against SETVI in % (Setaria viridis (SETVI) [22]; dosage 80 g/ha): 80%; Post-emergence action against SETVI in % (Setaria viridis (SETVI) [22]; dosage 320 g/ha): 90%; Post-emergence action against VIOTR in % (Viola tricolor (VIOTR) [23]; 320 g/ha): 80%
